Reference: patent publication US4680382A, “Analogues of actinomycin D” (priority 1986, dated 1987)
*1 amine or outer side, *2 acyl side, *3 side chain or, on linkers, in order; H or OH if unused. Where a SMILES comes first, the peptide text is derived from it. Bridges are numbered along the chain shown (N, C = ends). Roman numbers before positions name the chains, in order. [ ]: non-standard residue; d: D form. Actinocin(9to1) = Cc1c2oc3c(C)ccc(C(=O)[*:1])c3nc-2c(C(=O)[*:2])c(N)c1=O; NMeV = CN[C@H](C(=O)O)C(C)C; Sar = CNCC(=O)O

Columns and labels:
P388/S = test: In vivo activity against P388/S (adriamycin sensitive) leukemia, Table VII; design: species or system BDF1 mice; conditions: for P388/S % ILS / P388/S tumor-free survivors/total on day 60: at optimal dose; for P388/S optimal dose: ip, days 1, 5 and 9
Procedure: ^a Male BDF1 mice inoculated ip: 10^6 cells inoculum, day 0.
Drugs administered in 10% dimethyl sulfoxidesaline on days 1, 5 and 9. %
ILS = percent increase in life span. Fractions in parentheses = tumorfree
survivors/total on day 60. P388/S (adriamycin sensitive) and P388/ADR
(adriamycin resistant) tumors were evaluated in the same experiment with […]

[1] = Maximum tolerated dose (LD10) in tumor-free BDF1 male mice; assay type: in vivo; conditions: lethal dose for 10% normal BDF1 male mice, 21 days (LD10); ip days 1, 5 and 9
Procedure: (§1) These analogues were also tested in tumor-free BDF1 male mice for determination of their MTD values (Table VIII). The animals (18-22 g) were given a broad range of doses of drugs in 5% dimethyl sulfoxide-saline on days 1, 5 and 9. Drugs were administered ip and the maximum tolerated doses of agents which caused death in only 10% of the tested animals in 21 days (i.e., LD10) were recorded as MTD. […] However, the MED values of 7-hydroxy-AMD and its precursor AMD-OZL 10a are high and are seven to tenfold of the MED values of 4a and 8a. On the basis of these MED values, the therapeutic indices of 8a and 4a are 70 and 96. The therapeutic index of 2a is 13, of 10a 10, and of AMD only 4.
^c MTD (maximum tolerated dose) is the lethal dose
(milligram/kilogram) for 10% normal BDF1 male mice (18-22 g); animal
calculated from a plot of logdose vs. percent mortality.

P388 Leukemia = test: Minimum effective dose and therapeutic index vs. P388 leukemia; assay type: in vivo; conditions: dose giving 45% increase in life span in P388 tumor bearing mice; ip days 1, 5 and 9
Procedure: as §1
^a Drugs administered ip once on days 1, 5 and 9 starting 1 day after
tumor implantation. Determinations were made from analysis of plotted
^b MED (minimum effective dose) is the dose (milligram/kilogram)
providing an increase in life span of 45% over control in P388 tumor

SMILES	P388/S % ILS (P388/S) [%]	P388/S tumor-free survivors/total on day 60 (P388/S)	P388/S optimal dose (P388/S) [mg/kg]	MTD (maximum tolerated dose) [1] [milligram/kilogram]	MED (minimum effective dose) (P388 Leukemia) [milligram/kilogram]
Cc1c2oc3c(C)c(O)c(N)c(C(=O)NC4C(=O)NC(C(C)C)C(=O)N5CCCC5C(=O)N(C)CC(=O)N(C)C(C(C)C)C(=O)OC4C)c3nc-2c(C(=O)NC2C(=O)NC(C(C)C)C(=O)N3CCCC3C(=O)N(C)CC(=O)N(C)C(C(C)C)C(=O)OC2C)c(N)c1=O (stereo not shown) [4a, 7-Hydroxy-8-amino-actinomycin D]	382	4/8	0.6	2.40	0.025
Cc1c2oc3c(C)ccc(C(=O)N[C@@H]4C(=O)N[C@H](C(C)C)C(=O)N5CCC[C@H]5C(=O)N(C)CC(=O)N(C)[C@@H](C(C)C)C(=O)O[C@@H]4C)c3nc-2c(C(=O)N[C@@H]2C(=O)N[C@H](C(C)C)C(=O)N3CCC[C@H]3C(=O)N(C)CC(=O)N(C)[C@@H](C(C)C)C(=O)O[C@@H]2C)c(N)c1=O [AMD, Actinomycin D] (I: T[dV]P[Sar][NMeV] / II: T[dV]P[Sar][NMeV]; ester I:1-I:C, II:1-II:C; linker I:N-II:N via Actinocin(9to1))	132	1/8	0.25	0.25	0.0625
